Reference: patent US11524966B1 (Valo Early Discovery, Inc., priority 2017, dated 2022)

These compounds were tested against T1, USP28 (USP28-5(1-1077)-TEV-6*His; LifeSensors) (Homo sapiens, UniProt Q96RU2) (assay: Ubiquitin-Rhodamine 110 Assay for USP28 Activity, Example A-1(b)). Conditions: Ubiquitin-Rhodamine 110 assay, Example A-1(b).
T1 construct: construct USP28 (USP28-5(1-1077)-TEV-6*His; LifeSensors); TEV cleavage site (C); 6xHis (C); purchased LifeSensors
T1 sequence (Q96RU2 1-1077): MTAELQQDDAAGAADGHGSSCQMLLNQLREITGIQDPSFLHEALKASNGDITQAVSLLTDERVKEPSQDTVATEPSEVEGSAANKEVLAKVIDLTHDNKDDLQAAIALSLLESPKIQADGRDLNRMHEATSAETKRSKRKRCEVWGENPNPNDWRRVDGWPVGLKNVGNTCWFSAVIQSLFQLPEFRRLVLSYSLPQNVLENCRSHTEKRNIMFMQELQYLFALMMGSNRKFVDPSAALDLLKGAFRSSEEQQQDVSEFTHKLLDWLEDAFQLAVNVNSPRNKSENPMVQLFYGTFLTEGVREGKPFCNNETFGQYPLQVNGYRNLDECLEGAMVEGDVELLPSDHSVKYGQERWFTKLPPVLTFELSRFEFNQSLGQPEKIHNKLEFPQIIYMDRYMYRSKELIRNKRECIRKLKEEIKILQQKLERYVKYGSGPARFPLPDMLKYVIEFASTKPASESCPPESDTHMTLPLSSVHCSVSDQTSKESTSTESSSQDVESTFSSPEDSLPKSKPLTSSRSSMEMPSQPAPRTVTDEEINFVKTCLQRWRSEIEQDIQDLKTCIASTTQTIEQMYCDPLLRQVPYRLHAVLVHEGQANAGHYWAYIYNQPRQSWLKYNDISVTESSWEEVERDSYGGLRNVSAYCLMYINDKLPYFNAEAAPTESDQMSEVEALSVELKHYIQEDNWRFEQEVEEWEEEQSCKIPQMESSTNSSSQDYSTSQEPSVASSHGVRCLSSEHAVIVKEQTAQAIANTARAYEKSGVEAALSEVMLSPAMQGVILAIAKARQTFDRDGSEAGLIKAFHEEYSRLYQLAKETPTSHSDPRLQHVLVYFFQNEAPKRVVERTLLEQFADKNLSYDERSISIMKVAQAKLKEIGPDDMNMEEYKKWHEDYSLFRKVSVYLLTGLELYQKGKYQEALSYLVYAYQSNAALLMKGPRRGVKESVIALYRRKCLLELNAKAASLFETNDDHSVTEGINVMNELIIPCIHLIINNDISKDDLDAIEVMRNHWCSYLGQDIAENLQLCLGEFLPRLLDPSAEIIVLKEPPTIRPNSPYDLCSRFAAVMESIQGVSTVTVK
Assay type: biochemical
How it was run: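 Single-point screening used 10 μM compound with 90 min room-temperature incubation; follow-up dose-responses (25 μM top, 3-fold) used 75 pM USP28 1-1077 construct, 30 min compound preincubation, 25 nM Ub-Rh110, 20 min reaction, citric acid quench. Rh110 fluorescence normalised to no-enzyme and DMSO controls; IC50 from 4-parameter logistic fit.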

SMILES | USP28 A-1(b) IC50 range
Cc1ccc2c(N)c(C(=O)N[C@@H]3CCc4cc(N5CCN[C@@H](CO)C5)ccc4C3)sc2n1 (single isomer, unassigned) [Example 7-11] | ++ (0.2-2 μM)
Cc1cnc2c(N)c(C(=O)N[C@H]3COc4cc(N5CC6CC(C5)N6)cc(F)c4C3)sc2n1 [Example 10-8, N-((3R)-7-(3,6-diazabicyclo[3.1.1]heptan-3-yl)-5-fluorochroman-3-yl)-7-amino-3-methylthieno[2,3-b]pyrazine-6-carboxamide] | +++ (0.05-0.2 μM)
Cc1cnc2c(N)c(C(=O)N[C@H]3CCc4cc(N5CC6CCC(C5)N6)cc(F)c4C3)sc2n1 (single isomer, unassigned) [Example 11-13] | + (>2 μM)
Cc1ccc2c(N)c(C(=O)N[C@H]3CCc4cc(N5CCN[C@@H](CO)C5)ccc4C3)sc2n1 (single isomer, unassigned) [Example 7-9] | + (>2 μM)
Cc1ccc2c(N)c(C(=O)N[C@H]3CCc4cc(N5CCNCC5)cc(F)c4C3)sc2n1 (single isomer, unassigned) [Example 11-11] | + (>2 μM)
Cc1cc(C)c2c(N)c(C(=O)N[C@H]3COc4cc(N5CC6CC(C5)N6)cc(F)c4C3)sc2n1 [Example 10-7, N-((3R)-7-(3,6-diazabicyclo[3.1.1]heptan-3-yl)-5-fluorochroman-3-yl)-3-amino-4,6-dimethylthieno[2,3-b]pyridine-2-carboxamide] | +++ (0.05-0.2 μM)
Cc1ccc2c(N)c(C(=O)N[C@H]3COc4cc(C5(F)CCNCC5)ccc4C3)sc2n1 [Example 8-1, (R)-3-Amino-N-(7-(4-fluoropiperidin-4-yl)chroman-3-yl)-6-methylthieno[2,3-b]pyridine-2-carboxamide] | ++++ (0.001-0.05 μM)
Cc1cnc2c(N)c(C(=O)N[C@@H]3CCc4cc(N5CC6CCC(C5)N6)ccc4C3)sc2n1 (single isomer, unassigned) [Example 11-8] | + (>2 μM)
Cc1cnc2c(N)c(C(=O)N[C@H]3CCc4cc(N5CCNC[C@@H](O)C5)ccc4C3)sc2n1 (single isomer, unassigned) [Example 7-4] | ++ (0.2-2 μM)
Cc1cnc2c(N)c(C(=O)N[C@H]3COc4cc(N5CCNCC5)cc(F)c4C3)sc2n1 [Example 10-10, (R)-7-amino-N-(5-fluoro-7-(piperazin-1-yl)chroman-3-yl)-3-methylthieno[2,3-b]pyrazine-6-carboxamide] | +++ (0.05-0.2 μM)
Cc1cnc2c(N)c(C(=O)N[C@H]3CCc4cc(N5CC6CCC(C5)N6)ccc4C3)sc2n1 (single isomer, unassigned) [Example 11-7] | ++ (0.2-2 μM)
Cc1ccc2c(N)c(C(=O)N[C@@H]3CCc4cc(N5CCNCC5)cc(F)c4C3)sc2n1 (single isomer, unassigned) [Example 11-12] | ++ (0.2-2 μM)
Cc1ccc2c(N)c(C(=O)N[C@H]3CCc4cc(N5CC6CCC(C5)N6)ccc4C3)sc2n1 [Example 11-1, N-((2S)-6-(3,8-diazabicyclo[3.2.1]octan-3-yl)-1,2,3,4-tetrahydronaphthalen-2-yl)-3-amino-6-methylthieno[2,3-b]pyridine-2-carboxamide] | +++ (0.05-0.2 μM)
COc1ccc2c(N)c(C(=O)N[C@H]3CCc4cc(N5CC6CCC(C5)N6)ccc4C3)sc2n1 (single isomer, unassigned) [Example 11-5] | ++ (0.2-2 μM)
CCn1ccc2cc(C(=O)N[C@@H]3CCc4cc(N5CC6CCC(C5)N6)ccc4C3)cnc21 (single isomer, unassigned) [Example 11-10] | ++ (0.2-2 μM)
Cc1ccc2c(N)c(C(=O)N[C@H]3COc4cc(N5CCNCC5)cc(F)c4C3)sc2n1 [Example 10-1, (R)-3-amino-N-(5-fluoro-7-(piperazin-1-yl)chroman-3-yl)-6-methylthieno[2,3-b]pyridine-2-carboxamide] | +++ (0.05-0.2 μM)
Cc1cnc2c(N)c(C(=O)N[C@@H]3CCc4cc(N5CCNC[C@H](O)C5)ccc4C3)sc2n1 (single isomer, unassigned) [Example 7-7] | + (>2 μM)
COc1ccc2c(N)c(C(=O)N[C@@H]3CCc4cc(N5CC6CCC(C5)N6)ccc4C3)sc2n1 (single isomer, unassigned) [Example 11-6] | + (>2 μM)
Cc1cc(C)c2c(N)c(C(=O)N[C@H]3COc4cc(N5CCNCC5)cc(F)c4C3)sc2n1 [Example 10-9, (R)-3-amino-N-(5-fluoro-7-(piperazin-1-yl)chroman-3-yl)-4,6-dimethylthieno[2,3-b]pyridine-2-carboxamide] | +++ (0.05-0.2 μM)
Cc1nc2sc(C(=O)N[C@@H]3CCc4cc(N5CC6CCC(C5)N6)ccc4C3)c(N)c2cc1F (single isomer, unassigned) [Example 11-4] | +++ (0.05-0.2 μM)
CCn1ccc2cc(C(=O)N[C@@H]3CCc4cc(N5CC6CCC(C5)N6)ccc4C3)nnc21 (single isomer, unassigned) [Example 11-23] | + (>2 μM)
Cc1ccc2c(N)c(C(=O)N[C@H]3COc4cc(O[C@H]5COC6(CNC6)C5)ccc4C3)sc2n1 (single isomer, unassigned) [Example 9-2] | +++ (0.05-0.2 μM)
COc1ccc2c(N)c(C(=O)N[C@H]3COc4cc(N5CCNCC5)cc(F)c4C3)sc2n1 [Example 10-11, (R)-3-amino-N-(5-fluoro-7-(piperazin-1-yl)chroman-3-yl)-6-methoxythieno[2,3-b]pyridine-2-carboxamide] | ++ (0.2-2 μM)
Cc1ccc2c(N)c(C(=O)N[C@H]3COc4cc(O[C@@H]5COC6(CNC6)C5)ccc4C3)sc2n1 (single isomer, unassigned) [Example 9-1] | +++ (0.05-0.2 μM)

Same assay, conditions: Ubiquitin-Rhodamine 110 assay, format Example A-1(b)

SMILES | USP28 A-1(b) IC50 range
Cc1ccc2c(N)c(C(=O)N[C@H]3COc4c(F)c(N5CC6CCC(C5)N6)cc(F)c4C3)sc2n1 (single isomer, unassigned) [Example 13-1] | ++++ (0.001-0.05 μM)
Cc1ccc2c(N)c(C(=O)N[C@@H]3CCc4cc(N5CC6CCC(C5)N6)c(F)cc4C3)sc2n1 (single isomer, unassigned) [Example 21-3] | ++++ (0.001-0.05 μM)
Cc1ccc2c(N)c(C(=O)N[C@@H]3CCc4cc(N5C6CNCC5C6)ccc4C3)sc2n1 (single isomer, unassigned) [Example 11-36] | ++ (0.2-2 μM)
Cc1ccc2c(N)c(C(=O)N[C@@H]3CCc4cc(N5CCNCC5)c(F)cc4C3)sc2n1 (single isomer, unassigned) [Example 21-7] | +++ (0.05-0.2 μM)
Cc1nc2sc(C(=O)N[C@H]3CCc4cc(N5CC6CCC(C5)N6)ccc4C3)c(N)c2s1 (single isomer, unassigned) [Example 12-1] | + (>2 μM)
Cc1ccc2c(N)c(C(=O)N[C@H]3COc4cc(N5CCNCC5)c(Cl)cc4C3)sc2n1 [Example 13-5, (R)-3-amino-N-(6-chloro-7-(piperazin-1-yl)chroman-3-yl)-6-methylthieno[2,3-b]pyridine-2-carboxamide] | + (>2 μM)
Cc1ccc2c(N)c(C(=O)N[C@@H]3COc4c(F)c(N5CC6CCC(C5)N6)cc(F)c4C3)sc2n1 (single isomer, unassigned) [Example 13-2] | + (>2 μM)
Cc1ccc2c(N)c(C(=O)N[C@@H]3COc4cc(N5CC6CCC(C5)N6)c(F)c(F)c4C3)sc2n1 [Example 13-4, N-((3S)-7-(3,8-diazabicyclo[3.2.1]octan-3-yl)-5,6-difluorochroman-3-yl)-3-amino-6-methylthieno[2,3-b]pyridine-2-carboxamide] | ++++ (0.001-0.05 μM)
Cc1ccc2c(N)c(C(=O)N[C@H]3CCc4c(ccc(N5CCNCC5)c4F)C3)sc2n1 (single isomer, unassigned) [Example 21-6] | ++ (0.2-2 μM)
Cc1ccc2c(N)c(C(=O)N[C@@H]3CCc4c(F)c(N5CCNCC5)cc(F)c4C3)sc2n1 (single isomer, unassigned) [Example 22-2] | +++ (0.05-0.2 μM)
Cc1ccc2c(N)c(C(=O)N[C@H]3CCc4c(F)c(N5CCNCC5)cc(F)c4C3)sc2n1 (single isomer, unassigned) [Example 22-1] | ++ (0.2-2 μM)
